From patent US10253007B2, “Taxanes compounds, preparation method therefor, and uses thereof” (Jiangsu Tasly Diyi Pharmaceutical Co., Ltd., priority 2013, dated 2019)
Read-outs that look alike come from different tables or passages of the source.

Experiment: In vivo oral bioavailability assay (pharmacokinetics)
Design: species or system S.D. rats
Conditions: rat; for AUC(0-t): 0-24 hours; for MRT inf: read-out: MRT0-∞
Text: 3. In Vivo Oral Bioavailability Assay
The compound PCMI-31 was synthesized and detected according to the methods provided in the present invention. The internal standard, paclitaxel, was purchased from China's National Institute for the Control of Pharmaceutical and Biological Products (NICPBP). Chromatography-grade acetonitrile was purchased from Sigma-Aldrich Inc. Tween 80 and ethyl acetate were purchased from Aladdin reagent Inc. Male S.D. rats were purchased from Beijing Weitonglihua Inc. and raised in animal house for two weeks.
200 mg of PCMI-31 was dissolved in 4 ml of a mixed solution of Tween 80 and anhydrous ethanol (1:1) to prepare a stock solution at 50 mg/ml and normal saline was added to adjust to a suitable concentration. 12 male S.D. rats (about 300 g of body weight) were taken and divided into two groups after overnight fasting. One group was treated with intravenous injection (5 mg/kg) and the other group was treated orally (60 mg/kg). Blood was sampled in the intravenous group at 0th min, 5th min, 10th min, 20th min, 40th min, 1st h, 2nd h, 4th h, 6th h, 8th h, 12th h, 24th h, while the oral group at 5th min, 15th min, 30th min, 45th min, 1st h, 2nd h, 4th h, 6th h, 8th h, 12th h, 24th h. After 10 min centrifugation of plasma at 4500 rpm, the upper serum was taken and transferred to the corresponding EP tube, placed in a −40° C. freezer for assay.
Agilent 1100 series configuration: Agilent G1313A HPLC autosampler device, 150 mm×2.1 mm C18 Thermo column (particle size 3 μm) reversed-phase column, detection wavelength at 230 nm, column temperature at 30° C., mobile phase of acetonitrile/water (7:3), a flow rate at 0.2 ml/min, injection volume of 20 μl. The mass spectrometry (MS) combined was Thermo Finnigan TSQ Quantum triple quadrupole configurated with electrospray ionization (ESI) in the positive ion mode. The parameters of MS analysis were as follows: spray chamber voltage, 4.0 kv; heated capillary temperature, 350° C.; protective gas (nitrogen); 20 psi; auxiliary gas (nitrogen): 5 psi; collision gas (argon); pressure: 1.5 mmTorr.; Collision energy: CA 17 eV; FA and IFA were 19 eV: IS was 15 eV.
Paclitaxel was selected as an internal standard with a retention time of 3.07 min. Retention time of PCMI-31 was 4.21 min. MS detection condition to PCMI-31 was set as follows: 915→634 m/z; paclitaxel as an internal standard. Detection conditions: 876→308m/z. The concentration range of the standard curve of PCMI-31 was 5-10,000 ng/ml (γ^2>0.99) and the minimum detection limit was 5 ng/ml.
100 μL of plasma samples were taken, into which 100 μL of the internal standard (paclitaxel, 500 ng/ml acetonitrile solution) was added, followed by addition of 3 ml of ethyl acetate after well homogenized via vortex, after 5 min shaking, centrifuging for 8 min at a rotating speed of 4500 rpm. The supernatant was transferred to a clean EP tube with nitrogen to blow to dry under heating condition. After reconstitution with 120 μl mobile phase (CH3CN/H2O=7:3), the solution was centrifuged at 12,000 rpm for 3 min, 100 μl of supernatant was taken and transferred to an autosampler vial. After LC-MS/MS detection, statistical data and pharmacokinetic parameters were processed by Xcallbur® (version 1.3) software (Thermo Finnigan).

[1] = male, S.D., plasma, intravenous administration 5 mg/kg
[2] = male, S.D., plasma, oral administration 60 mg/kg

Compound `CO[C@H]1C(=O)[C@]2(C)[C@@H](OC(=O)N(C)C)C[C@H]3OC[C@@]3(OC(C)=O)[C@H]2[C@H](OC(=O)c2ccccc2)[C@]2(O)C[C@H](OC(=O)[C@H](O)[C@@H](NC(=O)OC(C)(C)C)c3ccccc3)C(C)=C1C2(C)C` [PCMI-31] has a half-life (male, S.D., plasma, other: oral or intravenous administration, generally, oral or intravenous administration, read-out: half-life (converted)) of about 3 h, an AUC(0-t) (male, S.D., plasma, intravenous 5 mg/kg) of 3310 ± 1330 ng·h/mL and an AUC(0-inf) [1] of 3320 ± 1330 ng·h/mL. The Cmax [1] was 7990 ± 3470 ng/mL, the Tmax [1] was 0 h and the MRT inf [1] was 2.58 ± 0.87 h. For the same compound, the half-life (male, S.D., plasma, intravenous administration 5 mg/kg, read-out: t1/2 (converted)) was 3.21 ± 0.53 h, the AUC(0-t) (male, S.D., plasma, oral 60 mg/kg) was 4250 ± 2480 ng·h/mL and the AUC(0-inf) [2] was 4270 ± 2490 ng·h/mL. The Cmax [2] was 922 ± 561 ng/mL, the Tmax [2] was 0.8 ± 0.2 h and the MRT inf [2] was 4.33 ± 0.74 h. The half-life (male, S.D., plasma, oral administration 60 mg/kg, read-out: t1/2 (converted)) was 2.97 ± 0.55 h, the bioavailability (male, S.D., plasma, oral, 60 mg/kg, oral 60 mg/kg vs intravenous 5 mg/kg, read-out: F, absolute oral bioavailability) was 10.7% and the “F, absolute oral bioavailability” value (oral 60 mg/kg vs intravenous 5 mg/kg) was 10.71%.
